# Assay results taken from patent US20140155410A1 (GlaxoSmithKline LLC, priority 2008, published 2014).
# Biological target: T1, Full length Human FAK (Flag-His-TEV-FAK1) (Homo sapiens, UniProt Q05397)
# T1 construct: Full length Human FAK was expressed using baculovirus in Sf9 cells; made in house; host or cells: baculovirus in Sf9 cells
# Experiment: Biochemical assay for FAK activity, Assay 2: LANCE Ultra ULight peptide phosphorylation, 665 nm/615 nm ratio
# Settings: Flag-His-TEV-FAK1, 10 μM ATP, 30 min pre-incubation
# Description: Flag-His-TEV-FAK1 was prepared in-house. Full length Human FAK was expressed using baculovirus in Sf9 cells with N-terminal FLAG-6×His tags followed by a TEV cleavage site (FLAG-6×His-TEV-huFAK). […] To measure inhibitors of FAK, compounds were first prepared as a 100× stock in 100% DMSO. […] After incubating for 120 minutes at room temperature, the reaction is quenched by adding 5 uL of 20 mM EDTA and 5nMEu-Anti-pTyr antibody in 1× LANCE detection buffer.
# T1 sequence (Q05397 whole entry): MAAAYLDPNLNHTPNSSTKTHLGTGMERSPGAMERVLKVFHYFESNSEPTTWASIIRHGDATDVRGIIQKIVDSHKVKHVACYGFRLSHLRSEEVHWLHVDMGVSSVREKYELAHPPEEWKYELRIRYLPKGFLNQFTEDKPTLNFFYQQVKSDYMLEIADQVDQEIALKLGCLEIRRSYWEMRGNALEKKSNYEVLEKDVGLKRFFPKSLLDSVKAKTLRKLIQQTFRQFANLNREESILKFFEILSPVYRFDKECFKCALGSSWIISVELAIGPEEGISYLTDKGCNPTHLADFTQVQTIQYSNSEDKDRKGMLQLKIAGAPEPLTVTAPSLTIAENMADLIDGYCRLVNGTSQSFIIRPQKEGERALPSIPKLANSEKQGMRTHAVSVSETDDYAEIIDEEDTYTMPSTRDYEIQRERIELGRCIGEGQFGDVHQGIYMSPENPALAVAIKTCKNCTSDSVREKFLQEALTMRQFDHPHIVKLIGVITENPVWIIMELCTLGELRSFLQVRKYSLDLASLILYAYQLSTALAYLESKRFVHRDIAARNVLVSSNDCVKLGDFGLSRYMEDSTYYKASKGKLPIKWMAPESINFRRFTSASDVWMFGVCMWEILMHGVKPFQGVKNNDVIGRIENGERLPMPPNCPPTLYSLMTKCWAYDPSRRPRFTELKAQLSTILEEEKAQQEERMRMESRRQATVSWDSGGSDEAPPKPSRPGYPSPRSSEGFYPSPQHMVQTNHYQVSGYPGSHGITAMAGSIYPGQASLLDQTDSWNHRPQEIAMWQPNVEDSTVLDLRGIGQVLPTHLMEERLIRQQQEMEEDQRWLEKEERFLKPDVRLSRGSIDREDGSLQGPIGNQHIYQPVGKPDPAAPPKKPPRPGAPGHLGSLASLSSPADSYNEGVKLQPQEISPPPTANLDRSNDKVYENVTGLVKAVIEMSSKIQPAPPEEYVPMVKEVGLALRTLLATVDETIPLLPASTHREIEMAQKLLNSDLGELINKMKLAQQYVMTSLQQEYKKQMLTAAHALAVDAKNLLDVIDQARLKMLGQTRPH
row,Compound,Assay 2 FAK H 31284A TRF PXC50
1,"CNC(=O)c1cccc(F)c1Nc1cc(Nc2cc(C)nn2C)ncc1Cl [Example 75, 2-({5-Chloro-2-[(1,3-dimethyl-1H-pyrazol-5-yl)amino]-4-pyridinyl}amino)-3-fluoro-N-methylbenzamide]",8.3

# Same assay, conditions: Flag-His-TEV-FAK1, 10 μM ATP, 30 min pre-incubation; read-out: Assay 2 FAK H 31284A TRF PXC50 (converted)
row,Compound,IC50
1,"CCn1nc(CCN2CCCC2)cc1Nc1cc(Nc2ccccc2C(=O)NC)c(Cl)cn1 [Example 46, 2-{[5-Chloro-2-({1-ethyl-3-[2-(1-pyrrolidinyl)ethyl]-1H-pyrazol-5-yl}amino)-4-pyridinyl]amino}-N-methylbenzamide]",12.6 nM
2,"CONC(=O)c1ccccc1Nc1cc(Nc2cnn(C)c2C)ncc1Cl [Example 47, 2-({5-Chloro-2-[(1,5-dimethyl-1H-pyrazol-4-yl)amino]-4-pyridinyl}amino)-N-(methyloxy)benzamide]",2.51 nM
3,"CONC(=O)c1ccccc1Nc1cc(Nc2c(C)cnn2C(C)C)ncc1Cl [Example 49, 2-[(5-Chloro-2-{[4-methyl-1-(1-methylethyl)-1H-pyrazol-5-yl]amino}-4-pyridinyl)amino]-N-(methyloxy)benzamide]",63.1 nM
4,"CCn1ncc(C)c1Nc1cc(Nc2ccccc2C(=O)NOC)c(Cl)cn1 [Example 50, 2-({5-Chloro-2-[(1-ethyl-4-methyl-1H-pyrazol-5-yl)amino]-4-pyridinyl}amino)-N-(methyloxy)benzamide]",12.6 nM
5,"CONC(=O)c1ccccc1Nc1cc(Nc2c(C)cnn2CC(C)C)ncc1Cl [Example 51, 2-[(5-Chloro-2-{[4-methyl-1-(2-methylpropyl)-1H-pyrazol-5-yl]amino}-4-pyridinyl)amino]-N-(methyloxy)benzamide]",20 nM
6,"CONC(=O)c1ccccc1Nc1cc(Nc2cc(CO)nn2C(C)C)ncc1Cl [Example 52, 2-[(5-Chloro-2-{[3-(hydroxymethyl)-1-(1-methylethyl)-1H-pyrazol-5-yl]amino}-4-pyridinyl)amino]-N-(methyloxy)benzamide]",6.31 nM
7,"CNC(=O)c1ccccc1Nc1cc(Nc2cc(C)nn2C)ncc1C1CC1 [Example 53, 2-[5-Cyclopropyl-2-(2,5-dimethyl-2H-pyrazol-3-ylamino)-pyridin-4-ylamino]-N-methyl-benzamide]",39.8 nM
8,"CCn1nc(C)cc1Nc1cc(Nc2ccccc2C(=O)NC)c(C2CC2)cn1 [Example 54, 2-[5-Cyclopropyl-2-(2-ethyl-5-methyl-2H-pyrazol-3-ylamino)-pyridin-4-ylamino]-N-methylbenzamide]",31.6 nM
9,"CONC(=O)c1ccccc1Nc1cc(Nc2cc(C)nn2C)ncc1C1CC1 [Example 55, 2-[5-Cyclopropyl-2-(2,5-dimethyl-2H-pyrazol-3-ylamino)-pyridin-4-ylamino]-N-methoxy-benzamide]",10 nM
10,"CCn1nc(C)cc1Nc1cc(Nc2ccccc2C(=O)NOC)c(C2CC2)cn1 [Example 56, 2-[5-Cyclopropyl-2-(2-ethyl-5-methyl-2H-pyrazol-3-ylamino)-pyridin-4-ylamino]-N-methoxy-benzamide]",15.8 nM
11,"CNC(=O)c1ccccc1Nc1cc(Nc2cc(C)nn2C)ncc1C(C)C [Example 58, 2-[2-(2,5-Dimethyl-2H-pyrazol-3-ylamino)-5-isopropyl-pyridin-4-ylamino]-N-methyl-benzamide]",50.1 nM
12,"CCn1nc(COC)cc1Nc1cc(Nc2ccccc2C(=O)NC)c(Cl)cn1 [Example 60, 2-{[5-Chloro-2-({1-ethyl-3-[(methyloxy)methyl]-1H-pyrazol-5-yl}amino)-4-pyridinyl]amino}-N-methylbenzamide]",12.6 nM
13,"CCOCc1cc(Nc2cc(Nc3ccccc3C(=O)NC)c(Cl)cn2)n(C(C)C)n1 [Example 61, 2-[(5-Chloro-2-{[3-[(ethyloxy)methyl]-1-(1-methylethyl)-1H-pyrazol-5-yl]amino}-4-pyridinyl)amino]-N-methylbenzamide]",25.1 nM
14,"CCn1nc(C)cc1Nc1cc(Nc2ccccc2C(=O)N(C)O)c(Cl)cn1 [Example 63, 2-({5-Chloro-2-[(1-ethyl-3-methyl-1H-pyrazol-5-yl)amino]-4-pyridinyl}amino)-N-hydroxy-N-methylbenzamide]",50.1 nM
15,"CCONC(=O)c1ccccc1Nc1cc(Nc2cc(C)nn2CC)ncc1Cl [Example 64, 2-({5-Chloro-2-[(1-ethyl-3-methyl-1H-pyrazol-5-yl)amino]-4-pyridinyl}amino)-N-(ethyloxy)benzamide]",79.4 nM
16,"CNC(=O)c1ccccc1Nc1cc(Nc2cc(C)nn2C)ncc1C#N [Example 65, 2-({5-Cyano-2-[(1,3-dimethyl-1H-pyrazol-5-yl)amino]-4-pyridinyl}amino)-N-methylbenzamide]",15.8 nM
17,"CONC(=O)c1ccc(Cl)cc1Nc1cc(Nc2cc(C)nn2C(C)C)ncc1Cl [Example 69, 4-Chloro-2-[(5-chloro-2-{[3-methyl-1-(1-methylethyl)-1H-pyrazol-5-yl]amino}-4-pyridinyl)amino]-N-(methyloxy)benzamide]",2.51 nM

row,Compound,IC50
1,CONC(=O)c1cc(Cl)ccc1Nc1cc(Nc2cc(C)nn2C(C)C)ncc1Cl [Example 70],6.31 nM
2,"CONC(=O)c1cc(F)ccc1Nc1cc(Nc2cc(C)nn2C(C)C)ncc1Cl [Example 71, 2-[(5-Chloro-2-{[3-methyl-1-(1-methylethyl)-1H-pyrazol-5-yl]amino}-4-pyridinyl)amino]-5-fluoro-N-(methyloxy)benzamide]",6.31 nM
3,"CONC(=O)c1cccc(F)c1Nc1cc(Nc2cc(C)nn2C(C)C)ncc1Cl [Example 72, 2-[(5-Chloro-2-{[3-methyl-1-(1-methylethyl)-1H-pyrazol-5-yl]amino}-4-pyridinyl)amino]-3-fluoro-N-(methyloxy)benzamide]",2.51 nM
4,"CONC(=O)c1ccc(F)cc1Nc1cc(Nc2cc(C)nn2C(C)C)ncc1Cl [Example 73, 2-[(5-Chloro-2-{[3-methyl-1-(1-methylethyl)-1H-pyrazol-5-yl]amino}-4-pyridinyl)amino]-4-fluoro-N-(methyloxy)benzamide]",1.26 nM
5,"CCn1nc(C)cc1Nc1cc(Nc2c(F)cccc2C(=O)NC)c(Cl)cn1 [Example 74, 2-({5-Chloro-2-[(1-ethyl-3-methyl-1H-pyrazol-5-yl)amino]-4-pyridinyl}amino)-3-fluoro-N-methylbenzamide]",3.16 nM
6,"CNC(=O)c1cccc(F)c1Nc1cc(Nc2cnn(C)c2C)ncc1Cl [Example 76, 2-({5-Chloro-2-[(1,5-dimethyl-1H-pyrazol-4-yl)amino]-4-pyridinyl}amino)-3-fluoro-N-methylbenzamide]",12.6 nM
7,"CCn1nc(C)cc1Nc1cc(Nc2c(F)cccc2C(=O)NC)c(C(F)(F)F)cn1 [Example 77, 2-{[2-[(1-Ethyl-3-methyl-1H-pyrazol-5-yl)amino]-5-(trifluoromethyl)-4-pyridinyl]amino}-3-fluoro-N-methylbenzamide]",1 nM
8,"CNC(=O)c1cccc(F)c1Nc1cc(Nc2cc(C)nn2C)ncc1C(F)(F)F [Example 78, 2-{[2-[(1,3-Dimethyl-1H-pyrazol-5-yl)amino]-5-(trifluoromethyl)-4-pyridinyl]amino}-3-fluoro-N-methylbenzamide]",1.58 nM
9,"CCn1nc(CO)cc1Nc1cc(Nc2c(F)cccc2C(=O)NC)c(C(F)(F)F)cn1 [Example 79, 2-{[2-{[1-Ethyl-3-(hydroxymethyl)-1H-pyrazol-5-yl]amino}-5-(trifluoromethyl)-4-pyridinyl]amino}-3-fluoro-N-methylbenzamide]",10 nM
10,"CNC(=O)c1cccc(F)c1Nc1cc(Nc2cc(CO)nn2C)ncc1C(F)(F)F [Example 80, 3-Fluoro-2-{[2-{[3-(hydroxymethyl)-1-methyl-1H-pyrazol-5-yl]amino}-5-(trifluoromethyl)-4-pyridinyl]amino}-N-methylbenzamide]",12.6 nM
11,"CCn1nc(CCO)cc1Nc1cc(Nc2c(F)cccc2C(=O)NC)c(C(F)(F)F)cn1 [Example 81, 2-{[2-{[1-Ethyl-3-(2-hydroxyethyl)-1H-pyrazol-5-yl]amino}-5-(trifluoromethyl)-4-pyridinyl]amino}-3-fluoro-N-methylbenzamide]",2 nM
12,"CNC(=O)c1cccc(F)c1Nc1cc(Nc2cc(CCO)nn2C)ncc1C(F)(F)F [Example 82, 3-Fluoro-2-{[2-{[3-(2-hydroxyethyl)-1-methyl-1H-pyrazol-5-yl]amino}-5-(trifluoromethyl)-4-pyridinyl]amino}-N-methylbenzamide]",0.794 nM
13,"CNC(=O)c1cc(F)ccc1Nc1cc(Nc2cc(C)nn2C)ncc1Cl [Example 83, 2-({5-Chloro-2-[(1,3-dimethyl-1H-pyrazol-5-yl)amino]-4-pyridinyl}amino)-5-fluoro-N-methylbenzamide]",12.6 nM
14,"CCn1nc(C)cc1Nc1cc(Nc2ccc(F)cc2C(=O)NC)c(Cl)cn1 [Example 84, 2-({5-Chloro-2-[(1-ethyl-3-methyl-1H-pyrazol-5-yl)amino]-4-pyridinyl}amino)-5-fluoro-N-methylbenzamide]",10 nM
15,"CNC(=O)c1cc(F)ccc1Nc1cc(Nc2cc(C)nn2C(C)C)ncc1Cl [Example 85, 2-[(5-Chloro-2-{[3-methyl-1-(1-methylethyl)-1H-pyrazol-5-yl]amino}-4-pyridinyl)amino]-5-fluoro-N-methylbenzamide]",63.1 nM
16,"CNC(=O)c1ccc(F)cc1Nc1cc(Nc2cc(C)nn2C(C)C)ncc1Cl [Example 86, 2-[(5-Chloro-2-{[3-methyl-1-(1-methylethyl)-1H-pyrazol-5-yl]amino}-4-pyridinyl)amino]-4-fluoro-N-methylbenzamide]",1.58 nM
17,"CNC(=O)c1ccc(F)cc1Nc1cc(Nc2cc(C)nn2C)ncc1Cl [Example 87, 2-({5-Chloro-2-[(1,3-dimethyl-1H-pyrazol-5-yl)amino]-4-pyridinyl}amino)-4-fluoro-N-methylbenzamide]",2.51 nM
